The source of these data is patent US20050171358A1 (priority 2002, published 2005).

The subject of one test is Pyricularia oryzae. The test is classed as in vivo. The conditions noted are these: 200 ppm spray on rice (Koshihikari, 3 leaf stage), inoculated next day; lesion numbers on third leaves after 7 days in green house, graded by Table 5.
Test [1] has as its system Colletotrichum lagenarium. The conditions noted are these: 200 ppm spray on cucumber (3 leaf stage), inoculated next day; lesion numbers on first and second leaves after 7 days in green house, graded by Table 5.

For the molecule `COc1ccc(C(=O)NCc2cc(COc3c(F)cccc3F)no2)cc1` [IV-86, N-{[3-(2,6-difluorophenyl)oxymethyl-5-isoxazolyl]methyl}-4-methoxybenzamide], the “Evaluation (effect for rice blast)” value in the test with Pyricularia oryzae was 5 (0). Moreover, in test [1], the “Evaluation (effect for cucumber anthracnose)” value is given as 5 (0).

As for `COc1ccc(C(=O)NCc2cc(COc3ccc(C(C)=O)cc3)no2)cc1` [IV-87, N-{[3-(4-acetylphenyl)oxymethyl-5-isoxazolyl]methyl}-4-methoxybenzamide], in the test on Pyricularia oryzae, the “Evaluation (effect for rice blast)” value is given as 5 (0). In addition, the “Evaluation (effect for cucumber anthracnose)” value in test [1] is on record as 4 (1˜5).

For the molecule `CNC(=O)c1ccc(OCc2cc(CNC(=O)c3ccc(OC)cc3)on2)cc1` [IV-88, N-{[3-(4-methylaminocarbonylphenyl)oxymethyl-5-isoxazolyl]methyl}-4-methoxybenzamide], in the test on Pyricularia oryzae, the “Evaluation (effect for rice blast)” value is 3 (6˜10). The “Evaluation (effect for cucumber anthracnose)” value in test [1] is on record as 3 (6˜10).

In the case of `COc1ccc(C(=O)NCc2cc(/C=C/c3ccco3)no2)cc1` [IV-89, N-{[3-(2-(2-furyl)ethenyl)-5-isoxazolyl]methyl}-4-methoxybenzamide], the “Evaluation (effect for rice blast)” value with Pyricularia oryzae is 5 (0). In addition, in test [1], the “Evaluation (effect for cucumber anthracnose)” value is 5 (0).

For `COc1ccc(C(=O)NCc2cc(COc3ccncc3)no2)cc1` [IV-90, N-{[3-(4-pyridyl)oxymethyl-5-isoxazolyl]methyl}-4-methoxybenzamide], the “Evaluation (effect for rice blast)” value in the test with Pyricularia oryzae is listed as 3 (6˜10). Further, the “Evaluation (effect for cucumber anthracnose)” value in test [1] is on record as 3 (6˜10).

`COc1ccc(C(=O)NCc2cc(COc3ccccn3)no2)cc1` [IV-92, N-{[3-(2-pyridyl)oxymethyl-5-isoxazolyl]methyl}-4-methoxybenzamide]: the “Evaluation (effect for rice blast)” value in the test on Pyricularia oryzae is 4 (1˜5). Further, the “Evaluation (effect for cucumber anthracnose)” value in test [1] was 3 (6˜10).

For the molecule `COc1ccc(C(=O)NCc2cc(C(=O)Nc3ccc(OC(F)F)cc3)no2)cc1` [IV-93, N-{[3-(4-difluoromethyloxyphenyl)aminocarbonyl-5-isoxazolyl]methyl}-4-methoxybenzamide], in the test on Pyricularia oryzae, the “Evaluation (effect for rice blast)” value is 4 (1˜5). The “Evaluation (effect for cucumber anthracnose)” value in test [1] is recorded as 3 (6˜10).

`COc1ccc(NC(=O)c2cc(CNC(=O)c3ccc(OC)cc3)on2)cc1` [IV-94, N-{[3-(4-methoxyphenyl)aminocarbonyl-5-isoxazolyl]methyl}-4-methoxybenzamide]: in the test on Pyricularia oryzae, the “Evaluation (effect for rice blast)” value is listed as 2 (11˜20). In addition, the “Evaluation (effect for cucumber anthracnose)” value in test [1] was 3 (6˜10).

Consider `COc1ccc(C(=O)NCc2cc(C(=O)Nc3ccc(F)cc3)no2)cc1` [IV-95, N-{[3-(4-fluorophenyl)aminocarbonyl-5-isoxazolyl]methyl}-4-methoxybenzamide], for which the “Evaluation (effect for rice blast)” value in the test on Pyricularia oryzae is 4 (1˜5). Further, the “Evaluation (effect for cucumber anthracnose)” value in test [1] is 4 (1˜5).

Consider `COc1ccc(C(=O)NCc2cc(C(=O)Nc3ccccc3Cl)no2)cc1` [IV-96, N-{[3-(2-chlorophenyl)aminocarbonyl-5-isoxazolyl]methyl}-4-methoxybenzamide], for which the “Evaluation (effect for rice blast)” value in the test on Pyricularia oryzae was 4 (1˜5). Moreover, in test [1], the “Evaluation (effect for cucumber anthracnose)” value was 4 (1˜5).

On to `COc1ccc(C(=O)NCc2cc(C(=O)Nc3ccc(C#N)cc3)no2)cc1` [IV-97, N-{[3-(4-cyanophenyl)aminocarbonyl-5-isoxazolyl]methyl}-4-methoxybenzamide], for which the “Evaluation (effect for rice blast)” value in the test with Pyricularia oryzae is on record as 5 (0). The “Evaluation (effect for cucumber anthracnose)” value in test [1] is 5 (0).

On to `O=C(/C=C/c1ccccc1)NCc1cc(COc2ccccc2)no1` [IV-99, N-[(3-phenoxymethyl-5-isoxazolyl)methyl]-β-phenylacrylamide], for which the “Evaluation (effect for rice blast)” value with Pyricularia oryzae is on record as 4 (1˜5). Further, the “Evaluation (effect for cucumber anthracnose)” value in test [1] was 4 (1˜5).

Regarding `COc1ccc(C(=O)NCc2cc(C(=O)Nc3cccc(Cl)c3)no2)cc1` [IV-105, N-{[3-(3-chlorophenyl)aminocarbonyl-5-isoxazolyl]methyl}-4-methoxybenzamide], the “Evaluation (effect for rice blast)” value in the test with Pyricularia oryzae was 3 (6˜10). The “Evaluation (effect for cucumber anthracnose)” value in test [1] is 3 (6˜10).

In the case of `COc1ccc(C(=O)NCc2cc(C(=O)Nc3ccc(F)cc3F)no2)cc1` [IV-107, N-{[3-(2,4-difluorophenyl)aminocarbonyl-5-isoxazolyl]methyl}-4-methoxybenzamide], the “Evaluation (effect for rice blast)” value in the test with Pyricularia oryzae is recorded as 5 (0). Besides, the “Evaluation (effect for cucumber anthracnose)” value in test [1] is listed as 5 (0).

As for `COc1ccc(C(=O)NCc2cc(C(=O)Nc3ccc(C)cc3)no2)cc1` [IV-108, N-{[3-(4-tolyl)aminocarbonyl-5-isoxazolyl]methyl}-4-methoxybenzamide], the “Evaluation (effect for rice blast)” value with Pyricularia oryzae is recorded as 2 (11˜20). In addition, in test [1], the “Evaluation (effect for cucumber anthracnose)” value is reported as 2 (11˜20).

`COc1ccc(C(=O)NCc2cc(C#Cc3ccccc3)no2)cc1` [IV-110, N-[(3-phenylethynyl-5-isoxazolyl)methyl]-4-methoxybenzamide]: in the test with Pyricularia oryzae, the “Evaluation (effect for rice blast)” value is 5 (0). The “Evaluation (effect for cucumber anthracnose)” value in test [1] is recorded as 5 (0).

Take `COCc1cc(CNC(=O)c2ccc(OC)cc2)on1` [IV-111, N-[(3-methoxymethyl-5-isoxazolyl)methyl]-4-methoxybenzamide]: the “Evaluation (effect for rice blast)” value with Pyricularia oryzae is given as 3 (6˜10). For the same molecule, the “Evaluation (effect for cucumber anthracnose)” value in test [1] is given as 3 (6˜10).

On to `COc1ccc(C(=O)NCc2cc(C(=O)Nc3ccccc3C#N)no2)cc1` [IV-112, N-{[3-(2-cyanophenyl)aminocarbonyl-5-isoxazolyl]methyl}-4-methoxybenzamide], for which the “Evaluation (effect for rice blast)” value in the test on Pyricularia oryzae is reported as 2 (11˜20). In addition, the “Evaluation (effect for cucumber anthracnose)” value in test [1] was 3 (6˜10).

As for `O=C(NCc1cc(C(=O)Nc2ccccc2)no1)c1ccccc1` [IV-113, N-[(3-phenylaminocarbonyl-5-isoxazolyl)methyl]benzamide], in the test with Pyricularia oryzae, the “Evaluation (effect for rice blast)” value is 4 (1˜5). Also, in test [1], the “Evaluation (effect for cucumber anthracnose)” value was 4 (1˜5).

Regarding `O=C(NCc1cc(C(=O)Nc2ccccc2)no1)c1ccc(Cl)cc1` [IV-114, N-[(3-phenylaminocarbonyl-5-isoxazolyl)methyl]-4-chlorobenzamide], in the test on Pyricularia oryzae, the “Evaluation (effect for rice blast)” value is reported as 5 (0). In addition, the “Evaluation (effect for cucumber anthracnose)” value in test [1] is 5 (0).

For `Cc1ccc(C(=O)NCc2cc(C(=O)Nc3ccccc3)no2)cc1` [IV-115, N-[(3-phenylaminocarbonyl-5-isoxazolyl)methyl]-4-methylbenzamide], the “Evaluation (effect for rice blast)” value in the test with Pyricularia oryzae is recorded as 5 (0). In test [1], the “Evaluation (effect for cucumber anthracnose)” value was 5 (0).

In the case of `Cc1cccc(C(=O)NCc2cc(C(=O)Nc3ccccc3)no2)c1` [IV-116, N-[(3-phenylaminocarbonyl-5-isoxazolyl)methyl]-3-methylbenzamide], the “Evaluation (effect for rice blast)” value with Pyricularia oryzae is 5 (0). Besides, the “Evaluation (effect for cucumber anthracnose)” value in test [1] was 4 (1˜5).

Consider `Cc1ccccc1C(=O)NCc1cc(C(=O)Nc2ccccc2)no1` [IV-117, N-[(3-phenylaminocarbonyl-5-isoxazolyl)methyl]-2-methylbenzamide], for which the “Evaluation (effect for rice blast)” value with Pyricularia oryzae is recorded as 4 (1˜5). Further, the “Evaluation (effect for cucumber anthracnose)” value in test [1] was 4 (1˜5).

On to `COc1ccc(C(=O)NCc2cc(C(=O)NC(C)(C)C)no2)cc1` [IV-119, N-[(3-tert-butylaminocarbonyl-5-isoxazolyl)methyl]-4-methoxybenzamide], for which the “Evaluation (effect for rice blast)” value with Pyricularia oryzae is listed as 2 (11˜20). Also, in test [1], the “Evaluation (effect for cucumber anthracnose)” value was 3 (6˜10).
